# Measurements taken from paper PMC12481576, “Barbituric Acid Derivatives as Covalent Inhibitors of Leishmania braziliensis Dihydroorotate Dehydrogenase” (Journal of Medicinal Chemistry, 2025).
# Where “and” joins values, the source holds several entries; their conditions need not be identical. Equal entries are not always repeated. Where two headings read alike, the source gives them in different places.
# Key:
# [1] = Cell viability / cytotoxicity assay (PrestoBlue, 72 h); assay type: cell-based; conditions: human; THP-1 cell line, 72 h, max 200 μM; read-out: CC50
# Procedure, shortened: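 PMA-differentiated THP-1 cells (150 ng/mL PMA, 48 h; then 24 h in fresh medium) were exposed to compounds in serial dilution from 200 μM for 72 h at 37 °C, 5% CO2. Viability was read by PrestoBlue fluorescence (ex 560/em 590 nm) after 2 h.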
# [2] = for Calculated T-half (min), Average / Calculated T-half (min), n=1 / Calculated T-half (min), n=2: mouse liver microsomes (CD1 male), test conc 1 µM; for Calculated T-half (min), Average: average of n=1 and n=2; for Modified T-half (min), Average / Remarks (mouse microsomal stability study): 0.4 mg/ml; for Modified T-half (min), Average: limited to T Half range 3.00 - […]; for Remarks (mouse microsomal stability study): NCF = no cofactor control; for mouse liver microsomes T-half: NADPH, 1 μM
# in vitro [3] = conditions: microsomes; for microsomal CLint at 1 μM / remaining at 5 min, 1 μM: male, CD1, mouse; for remaining at 5 min, 1 μM / remaining at 10 min, 1 µM / remaining at 20 min, 1 µM / remaining at 0.5 h, 1 µM / remaining at 1 h, 1 µM: pH 7.4, % Remaining; for remaining at 5 min, 1 μM: T=5 min; for remaining at 10 min, 1 µM / remaining at 20 min, 1 µM / remaining at 0.5 h, 1 µM / remaining at 1 h, 1 µM: mouse; for remaining at 10 min, 1 µM: T=10 min; for remaining at 20 min, 1 µM: T=20 min; for remaining at 0.5 h, 1 µM: T=30 min, 30 min; for remaining at 1 h, 1 µM: T=60 min, 60 min
# [4] = Kinetic solubility assay in PBS pH 7.4; assay type: physicochemical; conditions: kinetic from dmso stock, 1% DMSO; for solubility kinetic at 2 h: 25 °C, pH 7.4, aqueous buffer, PBS pH 7.4, 200 μM test conc, 2 h at 25 °C; for solubility at 2 h: aqueous buffer, PBS pH 7.4, 200 µM, 2 hours at 25°C
# Method: The plate was incubated for 2 h at 25 °C. The precipitates on the incubation plate were removed by filtration and the filtrates were quantified by LC-MS/MS. Calibration curves were prepared for each compound by using 5–6 points. Samples were analyzed by UV–vis.
# [5] = Mouse liver microsome stability in the absence of cofactors (NCF); conditions: mouse, microsomes, pH 7.4, % Remaining, T=60 NCF, 1 µM, 60 min, no cofactor (NCF)
# [6] = tested on: Leishmania braziliensis promastigotes; test: Leishmanicidal activity, promastigote growth (SYBR Green, 72 h); assay type: cell-based, Leishmania (V.) braziliensis (MHOM/BR/1975/M2904); conditions: L. braziliensis promastigotes, max 200 μM
# Procedure, shortened: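 Promastigotes seeded at 4 × 10^6 parasites/mL with compounds in decreasing concentrations up to 200 μM, 0.5% DMSO final, 72 h.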
# in vitro [7] = conditions: for recovery at 6 h, 10 µM / Papp: PAMPA; for Papp: pH 7.4, permeability, PBS pH 7.4, 10 μM, 6 h; for LogPe (cm/sec) n1: replicate n1, calculation section; for LogPe (cm/sec) n1 / LogPe (cm/sec) n2: PBS pH 7.4/7.4, 6h; for LogPe (cm/sec) n2: replicate n2, calculation section; for Pe (nm/sec) n=1 / % Recovery n=1: replicate n=1; for Pe (nm/sec) n=1 / Pe (nm/sec) n=2: 10µM (5% DMSO); for Pe (nm/sec) n=2 / % Recovery n=2: replicate n=2
# Method: Solutions of the compounds were prepared in duplicate by diluting the stock solutions (10 mM) in phosphate buffered saline (PBS) pH 7.4 at a final concentration of 10 μM (5% DMSO). The solutions diluted in PBS pH 7.4 were then added to the donor portion of the plate (300 μL/well), while in the acceptor portion PBS pH 7.4 (200 μL/well) was added. The two portions of the plate were then coupled, and the system was incubated for 6 h at room temperature. Samples of the initial donor solution (T0) were collected at the beginning (T0) and stored at 5 °C. The final concentrations of compounds in the donor, acceptor and T0 wells were quantified by LC-MS/MS.
# HsDHODH = target: T1, HsDHODH (Homo sapiens, UniProt Q02127); test: Selectivity assay: HsDHODH single-dose inhibition (DCIP reduction); assay type: biochemical
# T1 construct: made in house
# T1 sequence (Q02127 whole entry): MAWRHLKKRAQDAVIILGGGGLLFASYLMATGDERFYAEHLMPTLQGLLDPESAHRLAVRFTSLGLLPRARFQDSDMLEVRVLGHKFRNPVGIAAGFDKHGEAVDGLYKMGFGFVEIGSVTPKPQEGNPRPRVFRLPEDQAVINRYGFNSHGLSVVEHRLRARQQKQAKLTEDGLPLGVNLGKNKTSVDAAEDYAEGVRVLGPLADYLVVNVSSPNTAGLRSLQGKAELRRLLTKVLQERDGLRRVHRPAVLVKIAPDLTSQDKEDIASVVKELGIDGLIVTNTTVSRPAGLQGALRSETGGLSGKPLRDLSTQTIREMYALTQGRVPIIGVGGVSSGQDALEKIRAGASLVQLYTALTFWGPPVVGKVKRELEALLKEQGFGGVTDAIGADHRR
# Procedure, shortened: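 Recombinant human DHODH at 20 nM final, purified by Ni-NTA affinity, tested at a single compound concentration in triplicate. DCIP reduction followed at 610 nm every 3 s over 60 s. Velocity expressed as % activity relative to enzyme control without compound.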
# [8] = 0.4 mg/ml protein, replicate n=1
# [9] = 0.4 mg/ml protein, replicate n=2
# [10] = n=1, mouse liver microsomes, 1 µM, n=1
# [11] = n=2, mouse liver microsomes, 1 µM, n=2
# [12] = pH 7.4, mouse liver microsomes CLint, app, mouse liver microsomes, NADPH, 1 μM
# [13] = n=1, mouse liver microsomes, n=1
# [14] = n=2, mouse liver microsomes, n=2
# [15] = pH 7.4, % Recovery n=1, replicate n=1, 10µM, PBS pH 7.4/7.4, 6h at room temperature
# [16] = pH 7.4, % Recovery n=2, replicate n=2, 10µM, PBS pH 7.4/7.4, 6h at room temperature
# [17] = pH 7.4, Avg % Recovery, average of n=2, 10µM, PBS pH 7.4/7.4, 6h at room temperature
# [18] = average of n=2, 10µM, PBS pH 7.4/7.4, 6h at room temperature
# [19] = PBS pH 7.4/7.4, 6h at room temperature, LC-MS/MS
# [20] = 10µM, PBS pH 7.4/7.4, 6h at room temperature
# [21] = read-out: Single dose (0h) % activity
# [22] = read-out: Single dose (4h) % activity
smiles,measurement,setting,value
"COc1cc(C=C2C(=O)NC(=O)NC2=O)ccc1O [2c, 5-(4-Hydroxy-3-methoxybenzylidene)pyrimidine-2,4,6(1H,3H,5H)-trione]",CC50 at 72 h,[1],> 200 µM
same,"Calculated T-half (min), Average",[2]; 0.4 mg/ml protein,6.0 min
same,"Calculated T-half (min), n=1",[2]; [8],6.12 min and 6.1 min
same,"Calculated T-half (min), n=2",[2]; [9],5.82 min and 5.8 min
same,"Calculated CLint, app (µl/min/mg), n=1","[2]; mouse liver microsomes, 0.4 mg/ml protein, 1 µM, replicate n=1",283.1 µL/min/mg
same,"Calculated CLint, app (µl/min/mg), n=2","[2]; mouse liver microsomes, 0.4 mg/ml protein, 1 µM, replicate n=2",297.8 µL/min/mg
same,"Modified T-half (min), Average","[2]; mouse liver microsomes, 1 µM",6.0 min
same,Remarks (mouse microsomal stability study),"[2]; mouse liver microsomes, 1 µM",Low NCF
same,mouse liver microsomes T-half,[2]; mouse liver microsomes,6.0 min and 6 min
same,microsomal CLint at 1 μM,in vitro [3]; pH 7.4,283 µL/min/mg
same,"remaining at 5 min, 1 μM",in vitro [3]; [10],38.7%
same,"remaining at 5 min, 1 μM",in vitro [3]; [11],50.5%
same,microsomal CLint at 1 μM,"in vitro [3]; pH 7.4, Calculated CLint, app (µl/min/mg), Average, mouse liver microsomes, 0.4 mg/ml protein, 1 µM",290 µL/min/mg
same,microsomal CLint at 1 μM,"in vitro [3]; pH 7.4, Calculated CLint, app (µl/min/mg), n=1, mouse liver microsomes, 0.4 mg/ml protein, 1 µM, replicate n=1",283 µL/min/mg
same,microsomal CLint at 1 μM,"in vitro [3]; pH 7.4, Calculated CLint, app (µl/min/mg), n=2, mouse liver microsomes, 0.4 mg/ml protein, 1 µM, replicate n=2",298 µL/min/mg
same,microsomal CLint at 1 μM,in vitro [3]; [12],290 µL/min/mg
same,"remaining at 10 min, 1 µM",in vitro [3]; [10],17.1%
same,"remaining at 10 min, 1 µM",in vitro [3]; [11],17.8%
same,"remaining at 20 min, 1 µM",in vitro [3]; [10],9.8%
same,"remaining at 20 min, 1 µM",in vitro [3]; [11],9.5%
same,"remaining at 0.5 h, 1 µM",in vitro [3]; [10],6.6%
same,"remaining at 0.5 h, 1 µM",in vitro [3]; [11],9.5%
same,"remaining at 1 h, 1 µM",in vitro [3]; [10],12.9%
same,"remaining at 1 h, 1 µM",in vitro [3]; [11],13.3%
same,solubility kinetic at 2 h,[4],195 µM
same,solubility at 2 h,[4],51 µg/mL
same,"remaining at 1 h, 1 µM",[5]; [13],52.4%
same,"remaining at 1 h, 1 µM",[5]; [14],51.5%
same,EC50,[6]; Leishmania braziliensis,> 200 µM
same,"recovery at 6 h, 10 µM",in vitro [7]; [15],86.6%
same,"recovery at 6 h, 10 µM",in vitro [7]; [16],96%
same,"recovery at 6 h, 10 µM",in vitro [7]; [17],91.3%
same,Papp,in vitro [7],0.84 ×10⁻⁶ cm/s
same,Avg Log Pe (cm/sec),in vitro [7]; [18],-6.08 cm/sec and -6.1 cm/sec
same,Avg Pe,in vitro [7]; [18],0.843 ×10⁻⁶ cm/s and 0.84 ×10⁻⁶ cm/s
same,LogPe (cm/sec) n1,in vitro [7]; 10µM,-6.16 cm/sec
same,LogPe (cm/sec) n2,in vitro [7]; 10µM,-6.00 cm/sec
same,Pe (nm/sec) n=1,in vitro [7]; [19],6.94 nm/s and 6.9 nm/s
same,% Recovery n=1,in vitro [7]; [20],86.6%
same,Pe (nm/sec) n=2,in vitro [7]; [19],9.91 nm/s and 9.9 nm/s
same,% Recovery n=2,in vitro [7]; [20],96.0%
same,activity at 100 µM,HsDHODH; [21],80 ± 9%
same,activity at 100 µM,HsDHODH; [22],83 ± 8%
"O=C1NC(=O)C(=Cc2ccc(-c3ccccc3F)[nH]2)C(=O)N1 [2h, 5-((5-(2-Fluorophenyl)-1H-pyrrol-2-yl)methylene)pyrimidine-2,4,6(1H,3H,5H)-trione]",CC50 at 72 h,[1],> 200 µM
same,"Calculated T-half (min), Average",[2]; 0.4 mg/ml protein,1.7 min
same,"Calculated T-half (min), n=1",[2]; [8],1.70 min and 1.7 min
same,"Calculated T-half (min), n=2",[2]; [9],1.71 min and 1.7 min
same,"Modified T-half (min), Average","[2]; mouse liver microsomes, 1 µM",<3.0 min
same,Remarks (mouse microsomal stability study),"[2]; mouse liver microsomes, 1 µM",Very fast metabolism; Low NCF
same,mouse liver microsomes T-half,[2]; mouse liver microsomes,<3.0 min
same,microsomal CLint at 1 μM,in vitro [3]; pH 7.4,> 578 µL/min/mg
same,"remaining at 5 min, 1 μM",in vitro [3]; [10],5.9%
same,"remaining at 5 min, 1 μM",in vitro [3]; [11],5.1%
same,microsomal CLint at 1 μM,in vitro [3]; [12],> 578 µL/min/mg
same,"remaining at 10 min, 1 µM",in vitro [3]; [10],1.7%
same,"remaining at 10 min, 1 µM",in vitro [3]; [11],1.7%
same,"remaining at 20 min, 1 µM",in vitro [3]; [10],0.7%
same,"remaining at 20 min, 1 µM",in vitro [3]; [11],0.7%
same,"remaining at 0.5 h, 1 µM",in vitro [3]; [10],0.554%
same,"remaining at 0.5 h, 1 µM",in vitro [3]; [11],0.554%
same,"remaining at 1 h, 1 µM",in vitro [3]; [10],0.158%
same,"remaining at 1 h, 1 µM",in vitro [3]; [11],0.16%
same,solubility kinetic at 2 h,[4],4.63 µM
same,solubility at 2 h,[4],1.6 µg/mL
same,"remaining at 1 h, 1 µM",[5]; [13],1%
same,"remaining at 1 h, 1 µM",[5]; [14],1.5%
same,EC50,[6],5 ± 2 µM
same,EC50,[6]; Leishmania braziliensis,5.4 to 23 µM
same,"recovery at 6 h, 10 µM",in vitro [7]; [15],38%
same,"recovery at 6 h, 10 µM",in vitro [7]; [16],43.3%
same,"recovery at 6 h, 10 µM",in vitro [7]; [17],40.6%
same,Papp,in vitro [7],1.54 ×10⁻⁶ cm/s
same,Avg Log Pe (cm/sec),in vitro [7]; [18],-5.8 cm/sec and -5.83 cm/sec
same,Avg Pe,in vitro [7]; [18],1.54 ×10⁻⁶ cm/s and 1.539 ×10⁻⁶ cm/s
same,LogPe (cm/sec) n1,in vitro [7]; 10µM,-5.97 cm/sec
same,LogPe (cm/sec) n2,in vitro [7]; 10µM,-5.70 cm/sec
same,Pe (nm/sec) n=1,in vitro [7]; [19],10.8 nm/s and 10.80 nm/s
same,% Recovery n=1,in vitro [7]; [20],37.96%
same,Pe (nm/sec) n=2,in vitro [7]; [19],20.0 nm/s and 19.97 nm/s
same,% Recovery n=2,in vitro [7]; [20],43.27%
same,activity at 100 µM,HsDHODH; [21],100 ± 11%
same,activity at 100 µM,HsDHODH; [22],71 ± 7%
"O=C1NC(=O)C(=Cc2ccc(O)c([N+](=O)[O-])c2)C(=O)N1 [2d, 5-(4-Hydroxy-3-nitrobenzylidene)pyrimidine-2,4,6(1H,3H,5H)-trione]",CC50 at 72 h,[1],> 200 µM
same,Remarks (mouse microsomal stability study),"[2]; mouse liver microsomes, 1 µM",Poor detection sensitivity/Compound might be unstable in assay matrix
same,solubility kinetic at 2 h,[4],190 µM
same,solubility at 2 h,[4],52.7 µg/mL
same,EC50,[6]; Leishmania braziliensis,152 ± 28 µM
same,Remarks (PAMPA),"in vitro [7]; 10µM, PBS pH 7.4/7.4, 6h at room temperature, LC-MS/MS",Poor detection sensitivity/Compound might be unstable in assay matrix
same,activity at 100 µM,HsDHODH; [21],90 ± 10%
same,activity at 100 µM,HsDHODH; [22],92 ± 9%
